According to patent publication US12672653B2, “Pest management” (priority 2017, dated 2026):
Converted amounts (≈) assume the structure as drawn. Like-named read-outs stand apart in the source and are kept apart here.

Legend:
Myzus persicae [1] = assay: whole plant or invertebrate; settings: foliar; for LC50: read-out: LC50 (95% CI's)
Aedes aegypti L3 larvae = assay: Mosquito larval topical dose-mortality assay (synergism); assay type: in vivo; settings: for LC50: Aedes aegypti, topical
Method: The efficacy of a flavesone formulation against mosquito larvae was investigated together with investigation of the potential for synergistic action of flavesone and one or more technical grade insecticides. Dose-mortality assays were performed to evaluate the toxicity of technical grade insecticide, here the synthetic pyrethroid (SP) permethrin at various concentrations (minimum five dose points) alone and co-administered with flavesone at single point dose was performed. Assays were conducted using L3 larvae of the Liverpool (SP susceptible) and Puerto Rico (SP resistant) strains of the yellow fever mosquito, Aedes aegypti maintained in continuous culture at Purdue University, US. Larvae were transferred to a 24 well tissue plate using a wide-bore plastic transfer pipette, 5 larvae per well. The water was gently removed from the well with a 1 mL pipette and an equivalent amount of ddH2O was added. The appropriate volume of test compound was added to each of the four replicate wells per treatment and the plate gently swirled to ensure uniform mixing. The plate was placed in a test or growth chamber under constant conditions of 22-25° C. and about 75-85% relative humidity on a 12 h light/12 hr dark cycle. Assays were scored for the phenotypic endpoint of death/paralysis at 24, 48 and 72 hours post exposure. Each assay incorporated a positive (flavesone) and negative (vehicle only) control, and minimum of four technical replicates per dose of test chemistry. The data reported here represent three biological replicates.
Pilot assays were first employed to determine dose of flavesone (LC50, LC25 or LC10 dose as determined in previous dose-mortality tests) appropriate for synergism assays. […] The Synergistic Ratio (SR) for insecticide+flavesone combination is also shown and the synergistic action evaluated as per the published studies of Ahmed and Matsumura (2012, Journal of Medical Entomology 49(6):1405-10) and Ahmed and Vogel (2015, Acta Tropica 155:1-5).

Myzus persicae [2] = settings: 96 hours exposure; first bioassay dose-response curve
sodium channels = assay: Sodium conductance in the DRG (voltage clamp recording); assay type: cell-based, Sprague-Dawley rats; settings: for Normalised Na^+ Conductance Amplitude, Mean: Control = 100
Method: (§1) Dorsal root ganglion (DRG) cells were obtained from young adult male Sprague-Dawley rats weighing 220-250 g. The rats were housed in groups of 4 in an air conditioned room on a 12 hour light/dark cycle with food and water available ad libitum.
(§2) Animals were humanely killed and the lower thoracic and upper lumbar region DRG removed and stored in chilled phosphate buffered saline (PBS). The DRG were carefully trimmed and then digested using 2 mg/mL trypsin (type XII-S) and 2 mg/mL collagenase (type XI), freshly made up in PBS, for 45-60 mins in a shaking water bath at 37° C. Subsequent to extensive washing with PBS and then plating medium (PM; 50:50 mix of DMEM/Hams F12, supplemented with 10% foetal bovine serum, 100 U/mL penicillin and 100 μg/mL streptomycin), careful trituration of the DRG was carried out using sterile fire polished glass pipettes of decreasing diameter and the cells were plated on coated glass coverslips (BD Biosciences, BD Biocoat, poly-D-Lysine), contained in 35 mm tissue culture dishes so that the cells could be easily transferred to the recording chamber mounted on an Olympus IX51 […] microscope for electrophysiological recording. Cells were incubated under standard tissue culture conditions (36° C. in a humidified atmosphere of 5% CO2, 95% air) and were used within 48-72 hours of plating.
(§3) Whole-cell patch-clamp recordings were conducted at room temperature ([…]) using an Axopatch 200B amplifier (Axon Instruments Inc., USA) with 3-7 MΩ electrodes, depending on the patch success rate and recording quality. Data were filtered and digitized appropriately. Current-clamp recordings were performed with pipette solution of the following composition: 140 mM KCl, 0.5 mM EGTA, 5 mM HEPES, 3 mM Mg-ATP and 3 mM Na-GTP (pH 7.3), adjusted to 310 mOsm/L with glucose. The bathing solution contained: 140 mM NaCl, 3 mM KCl, 2 mM MgCl2, 2 mM CaCl2, and 10 mM HEPES (pH 7.3), adjusted to 315 mOsm/L with glucose. Passive membrane properties (e.g. resting membrane potential (Vm)) were monitored during the first few minutes from establishing whole-cell access and periodically during recording. Evoked potential recordings commenced 3-5 minutes after establishing whole-cell configuration.
(§4) Flavesone test solutions were prepared fresh from a stock solution (96.7% w/w) on the day of recording. 100 μL of flavesone composition was mixed with 100 µL of Tween 80 and diluted to 10 mL in artificial cerebrospinal fluid (aCSF) to give a final flavesone concentration of 1%. The pH of the 1% solution was adjusted to 7.3 with 1M NaOH and diluted to 0.5% and 0.25% flavesone concentration with aCSF containing 1% Tween 80 immediately prior to use. Test compounds were applied using a DAD-16VC fast perfusion system (ALA Scientific Instruments, USA) and compared to the results gathered using control flow. The control was aSCF with 1% Tween 80.
(§5) Comparison samples of permethrin were prepared as 100 μM permethrin in […] (DMSO).
(§6) All analysis was conducted using Clampfit (MDS Analytical Technologies) and Excel (Microsoft) software. Statistical comparisons between groups were performed using the Student's t-test with P<0.05 taken to identify a significant difference.
Pyrethroids such as permethrin are known to be sodium channel modulators. Analysis of the effects of flavesone and permethrin on sodium conductance in the DRG was examined. […]

Musca domestica = assay: Knockdown and mortality of houseflies exposed to treated tiles; assay type: in vivo
Method: Each formulation was filled into a hand-held pump sprayer. The treatments were applied to tiles from a distance of 20 cm. The tile was placed on a 0.5 m^2 grid and the entire 0.5 m^2 was sprayed, including the tile, at a rate of 50 mL/m^2. To ensure the correct volume was applied, the pump sprayer was weighed before and after spraying.
The tiles were left for two hours post-treatment to allow the formulation to dry on the tile, before evaluation started.
A control tile that was not treated with any formulation (untreated) was also used.
Ten mixed sex Musca domestica houseflies were placed in a plastic petri dish using a powered aspirator. The petri dish placed over a treated or control tile surface. The petri dish was perforated for ventilation with small holes and a cotton wool plug soaked in sugar solution provided moisture and plugged the insect introduction hole in the petri dish.
The houseflies were constantly exposed to a treated or untreated tile surface. The exposure took place at a temperature of 22±2° C. and about 50% relative humidity (RH).
After 30 minutes exposure, a piece of paper was placed over the tile surface to prevent contact of the houseflies with the treated or untreated tile. The houseflies were held at 22±2° C. and about 50% RH for 24 hours.
Housefly knockdown was noted 15 minutes and 30 minutes after beginning of exposure and 1, 2, 3 and 4 hours after initial exposure.
The above experiment was repeated four times to give five replicates. No statistical analysis was done.

[3] = tested on: Dorsal root ganglion (DRG) cells; assay: Whole-cell patch-clamp current-clamp recording of dorsal root ganglion cells (membrane potential, action potentials); assay type: cell-based, Sprague-Dawley rats
Method: as §1, §2, §3, §4, §5, §6

[4] = voltage clamp recording configuration
[5] = 0.5% flavesone, Table 3, permethrin experiment

Structure (SMILES): CC1(C)C(C=C(Cl)Cl)C1C(=O)OC(C#N)c1cccc(Oc2ccccc2)c1 (stereo not drawn) [Alpha-cypermethrin]
- mortality at 16 µg/mL (Myzus persicae [1]; 96 h): 21.6%
- mortality at 40 µg/mL (Myzus persicae [1]; 96 h): 44.9%
- mortality at 60 µg/mL (Myzus persicae [1]; 96 h): 52.2%
- mortality at 80 µg/mL (Myzus persicae [1]; 96 h): 86.9%
- LC50 (Myzus persicae [1]; 96 h): 44.6 µg/mL (≈ 107 µM)

Structure (SMILES): CC(C)C(=O)C1C(=O)C(C)(C)C(=O)C(C)(C)C1=O [Flavesone, 1-isobutyroyl-3,3,5,5-tetramethylcyclohexan-2,4,6-trione]
- mortality at 1200 µg/mL (Myzus persicae [1]; 96 h): 10.9%
- mortality at 1800 µg/mL (Myzus persicae [1]; 96 h): 25.7%
- LC50 (Myzus persicae [1]): 2730 µg/mL (≈ 10800 µM)
- larval phenotype (Aedes aegypti L3 larvae; addition of flavesone): unambiguous “lethal” larval phenotype
- LC15 (Myzus persicae [2]): 1200 mg a.i./L
- LC30 (Myzus persicae [2]): 1800 mg a.i./L
- effect on sodium channels (sodium channels): no effect on sodium channels
- area under the curve (AUC) (sodium channels; 0.5% flavesone, 1% flavesone versus control and wash): no significant difference
- Normalised Na^+ Conductance Amplitude, Mean (sodium channels; 0.5% flavesone): 84.65
- Normalised Na^+ Conductance Amplitude, Mean (sodium channels; 1% flavesone): 77.56
- sodium conductance amplitude (sodium channels; flavesone, Table 10): no significant effect
- channel inactivation/deactivation (sodium channels; [4]): no effect
- reduction of sodium channel conductance (sodium channels; voltage clamp recording configuration, not significantly different to control): approximately 20%
- mortality (Musca domestica; both rates (200 mg/mL & 100 mg/mL), 24 hours post initial exposure): 100%
- knockdown of houseflies (Musca domestica; rates of 200 mg/mL & 100 mg/mL, after 15 minutes exposure): 100%
- effect on potassium channels [3]: activates one or more potassium channels
- input resistance in DRG neurones [3]: reduced input resistance
- Vm (mV) Mean ([3]; 0.25% flavesone): −71.51 mV
- Δ Vm (mV) Mean ([3]; 0.25% flavesone): −7.80 mV
- Normalised No. of Action Potentials @ Vh −50 mV, Mean ([3]; 0.5% flavesone, Control = 100): 74.0
- Vm (mV) Mean ([3]; 0.5% flavesone, Table 2): −73.54 mV
- Δ Vm (mV) Mean ([3]; 0.5% flavesone, Table 2): −18.15 mV
- Vm (mV) Mean [3, 5]: −80.56 mV
- Δ Vm (mV) Mean [3, 5]: −19.63 mV
- Normalised Action Potentials Amplitude, Mean ([3]; 0.5% flavesone, Table 5, Control = 100): 77.72
- Normalised Action Potentials Amplitude, Mean ([3]; 0.5% flavesone, Table 6, Control = 100): 90.17
- Vm (mV) Mean ([3]; 1% flavesone): −83.75 mV
- Δ Vm (mV) Mean ([3]; 1% flavesone): −29.82 mV
- Normalised No. of Action Potentials @ Vh −50 mV, Mean ([3]; 1% flavesone, Control = 100): 65.8
- Normalised Action Potentials Amplitude, Mean ([3]; 1% flavesone, Table 5, Control = 100): 28.35
- Normalised Action Potentials Amplitude, Mean ([3]; 1% flavesone, Table 6, Control = 100): 91.50
- number of action potentials ([3]; flavesone, Table 4): slightly reduced
- amplitude of the action potentials ([3]; flavesone, Table 5): reduced
- action potential threshold ([3]; flavesone, Table 6): no significant effect
- resting potential from current-voltage relations ([3]; in the presence of flavesone): about −84 mV
- mean resting potential (Vm) ([3]; reduced from about −62 mV by flavesone): about −84 mV

Structure (SMILES): CC1(C)C(C=C(Cl)Cl)C1C(=O)OCc1cccc(Oc2ccccc2)c1 (stereo not drawn) [Permethrin]
- LC50 (Aedes aegypti L3 larvae; 24 h, read-out: LC50 (ng/ml) (95% CL), Permethrin Dose-Mortality, L3 larvae, Liverpool (LVP, SP susceptible) strain, 24 hours post exposure, Permethrin alone): 26.7 ng/mL
- LC50 (Aedes aegypti L3 larvae; 24 h, read-out: LC50 (ng/ml) (95% CL), Permethrin Dose-Mortality, L3 larvae, Puerto Rico (PRS, SP resistant) strain, 24 hours post exposure, Permethrin alone): 280 ng/mL
- LC50 (Aedes aegypti L3 larvae; 48 h, read-out: LC50 (ng/ml) (95% CL), Permethrin Dose-Mortality, L3 larvae, Liverpool (LVP, SP susceptible) strain, 48 hours post exposure, Permethrin alone): 24.3 ng/mL
- LC50 (Aedes aegypti L3 larvae; 48 h, read-out: LC50 (ng/ml) (95% CL), Permethrin Dose-Mortality, L3 larvae, Puerto Rico (PRS, SP resistant) strain, 48 hours post exposure, Permethrin alone): 231 ng/mL
- level of resistance to Permethrin (Aedes aegypti L3 larvae; Puerto Rico strain larvae as compared to Liverpool strain larvae): approximately 10 fold
- effect on sodium channels (sodium channels): had an effect on sodium channels
- Normalised Na^+ Conductance Amplitude, Mean (sodium channels; 100 μM permethrin, Table 11): 103.47
- Normalised Na^+ Conductance Amplitude, Mean (sodium channels; 100 μM permethrin, Table 12): 282.56
- sodium conductance amplitude (sodium channels; permethrin, Table 11): little effect
- area under the curve (AUC) (sodium channels; permethrin, Table 12): significant increase
- channel inactivation/deactivation (sodium channels; [4]): significantly prolonged channel inactivation
- mortality (Musca domestica; 1.25 mg/mL rate, 24 hours post-initial exposure): 62%
- knockdown of houseflies (Musca domestica; 2.5 mg/mL and 1.25 mg/mL, any assessment time): < 100%
- mortality (Musca domestica; 2.5 mg/mL rate, 24 hours post-initial exposure): 72%
- knockdown of houseflies (Musca domestica; both rates (2.5 and 1.25 mg/mL), 1-hour post initial exposure): 94%
- effect on potassium channels [3]: no effect on potassium channels
- input resistance in DRG neurones [3]: no effect on the input resistance
- effect on mean resting potential (Vm) ([3]; 100 μM): no effect
- Vm (mV) Mean ([3]; 100 μM permethrin): −61.48 mV
- Δ Vm (mV) Mean ([3]; 100 μM permethrin): −08 mV
- DRG Normalised No. of Action Potentials @ Vh −50 mV, Mean ([3]; 100 μM permethrin, Control = 100): 17.95
- Normalised Action Potentials Amplitude, Mean ([3]; 100 μM permethrin, Table 8, Control = 100): 99.46
- Normalised Action Potentials Amplitude, Mean ([3]; 100 μM permethrin, Table 9, Control = 100): 100.20
- number of action potentials ([3]; permethrin 100 μM, Table 7): significantly reduced
- amplitude of the actions ([3]; permethrin 100 μM, Table 8): no effect
- action potential threshold ([3]; permethrin 100 μM, Table 9): no effect

Structure (SMILES): Cc1nc(N(C)C)nc(OC(=O)N(C)C)c1C [Pirimicarb]
- mortality at 10 µg/mL (Myzus persicae [1]; 96 h): 20.3%
- mortality at 18.5 µg/mL (Myzus persicae [1]; 96 h): 36.1%
- mortality at 23 µg/mL (Myzus persicae [1]; 96 h): 82.8%
- mortality at 30 µg/mL (Myzus persicae [1]; 96 h): 76.2%
- LC50 (Myzus persicae [1]; 96 h): 19.7 µg/mL (≈ 82.7 µM)
